In the assay the target is T1, acetylcholinesterase (Electrophorus electricus, UniProt O42275).
T1 construct: purchased SIGMA C 2888; host or cells: electric organ of Electrophorus electricus
Put plainly: cholinesterase inhibitory activity: acetylcholinesterase activity by the Ellman method. The assay is classed as biochemical. The settings on record: acetylthiocholine iodide substrate, DTNB, phosphate buffer pH 8, 25° C., absorbance at 412 nm; read-out: IC50 ± SD (inhibitory concentration at 50% activity of the enzyme). On the technique in general: Ellman's reagent forms a yellow product with free thiols.

T1 sequence (O42275 24-633): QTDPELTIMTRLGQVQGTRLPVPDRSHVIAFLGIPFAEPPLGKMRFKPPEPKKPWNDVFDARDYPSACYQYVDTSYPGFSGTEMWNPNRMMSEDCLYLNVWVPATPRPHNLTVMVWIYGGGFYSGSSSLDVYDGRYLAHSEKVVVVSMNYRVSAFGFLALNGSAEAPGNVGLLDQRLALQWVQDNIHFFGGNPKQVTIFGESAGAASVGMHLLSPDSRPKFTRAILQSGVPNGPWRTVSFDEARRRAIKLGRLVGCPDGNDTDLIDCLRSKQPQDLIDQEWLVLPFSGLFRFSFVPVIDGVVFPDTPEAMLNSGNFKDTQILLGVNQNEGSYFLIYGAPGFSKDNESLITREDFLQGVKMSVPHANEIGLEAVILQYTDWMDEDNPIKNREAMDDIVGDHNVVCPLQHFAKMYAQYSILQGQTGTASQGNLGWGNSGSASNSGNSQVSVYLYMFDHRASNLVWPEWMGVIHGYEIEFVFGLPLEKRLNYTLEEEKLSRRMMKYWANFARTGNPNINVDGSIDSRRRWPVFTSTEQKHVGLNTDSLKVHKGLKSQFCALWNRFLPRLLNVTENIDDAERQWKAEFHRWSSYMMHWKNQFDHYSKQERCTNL
Method: In order to measure the cholinesterase inhibitory activity of the compounds of the invention, the enzymatic activity of acetylcholinesterase is evaluated by the Ellman method (Biochemical Pharmacology, 1961, Vol. 7 pp 88-95, Ellman et al.).
The principle of the method comprises measuring the rate of thiocholine at the time of hydrolysis of the acetylcholine by the enzyme. The hydrolysis is accompanied by a continuous reaction between thiocholine and 5,5'-dithio-2-nitrobenzoic acid (DTNB) which leads to the formation of the yellow colored 5-thio-2-nitrobenzoate anion. The rate of the formation of the anion is measured by absorbance at 412 nm.
The material used is comprised of a 0.1 M (pH 8) phosphate buffer: Na2 HPO4 /NaH2 PO4, an enzyme: acetylcholinesterase from the electrical organ of the electric ray Electrophorus electricus (SIGMA C 2888) purified on Sephadex resin, a substrate: acetylthiocholine iodide 7.5 mM (21.67 mg/10 ml of phosphate buffer) and a reagant: 5,5'-dithio-2-nitrobenzoic acid (DTNB) 10 mM (39.6mg / 10 ml of phosphate buffer).
Thus 3 ml of phosphate buffer, 100 μl of DTNB, 2 μl enzyme, 3.3 μl of the compound according to the invention, and 200 μl of substrate are mixed at 25° C., subsequently the change of absorbance at 412 nm is measured immediately.

Turning to `COc1ccc2c3c1O[C@H]1C[C@@H](O)C=C[C@@]31CC[N+](C)=C2` [Example 1, galanthaminium methanesulfonate], the IC50 was determined as 80 ± 2 nM.
For the compound `COc1ccc2c3c1O[C@H]1C[C@@H](O)C=C[C@@]31CC[N+](CCCCCCn1cccc1)=C2` [Example 11, 10-N-demethyl-10-N-(6'pyrrolohexyl)-galanthaminium bromohydrate], the IC50 was 170 ± 10 nM.

These data come from patent publication US5958903A, “Galanthamine derivatives, and their pharmaceutical compositions” (priority 1995, dated 1999).
